Laboratory results reported in US20190031780A1, “COMPOSITIONS AND METHODS FOR TARGETING CANCER STEM CELLS” (Siamab Therapeutics, Inc., priority 2016, published 2019).

How the values were obtained:
STn+CD133+ OV90 cells = assay: Cell viability of OV90 cells by MTT assay, chemotherapeutic vs antibody treatment (Example 6); assay type: cell-based, human; conditions: OV90 cells cultured 72 to 144 hours; normalized to vehicle only control
Method: STn+CD133+ OV90 and CSC sub-fractions were treated with different concentrations of paclitaxel (FIG. 2A), carboplatin (FIG. 2B), paclitaxel and carboplatin (FIG. 2C) or with unconjugated anti-STn antibody S3F (FIG. 2D). OV90 cells were cultured for 72 to 144 hours with the indicated chemotherapeutic drug or antibody concentrations and cell viability was analyzed by MTT assay. All values were normalized to a vehicle only control.

OVCAR3 cells = assay: OVCAR3 cell viability by MTT assay, chemotherapeutic vs antibody treatment (Example 15); assay type: cell-based, human; conditions: 72 hours, increasing doses, normalized to vehicle control
Method: The viability of OVCAR3 cells grown in culture was assessed following treatment with carboplatin, paclitaxel, carboplatin and paclitaxel, or S3F (FIG. 7). OVCAR3 cells were cultured for 72 hours with the indicated concentrations of paclitaxel, carboplatin, paclitaxel/carboplatin combination, or S3F. Relative cell viability was determined by measuring cellular metabolic activity using an MTT assay (EMD Millipore, Billerica, Mass.). For each experiment, all values were normalized to the vehicle control.

OVCAR4 cells = assay: Relative frequency of OVCAR4 STn/CD133 subpopulations after chemotherapy treatment (Example 13); assay type: cell-based, human; conditions: vs vehicle
Method: The potential for anti-STn antibodies to target stem cells after treatment of OVCAR4 cells with chemotherapy agents (paclitaxel and/or carboplatin) was evaluated. The relative frequency of the OVCAR4 subpopulations observed following treatment with either vehicle (shaded) or the indicated chemotherapy regimen is shown in FIG. 6.

[1] = system: STn positive cells in OVCAR3 xenograft tissues; assay: STn expression in xenograft tissues by flow cytometry at end of OVCAR3 in vivo study (Example 20); design: species or system NOD/SCID mice; conditions: 5 mg/kg weekly
Method: OVCAR3 cells were injected into NOD/SCID mice to generate tumor xenografts. Once a sufficient number of mice developed tumor volumes ranging from 200-500 mm^3, mice were randomized into 5 groups (about 6-7 mice/group) with essentially equivalent group mean tumor volumes. Each group received weekly treatments according to the following Table.
At the end of the study, xenograft tissues were processed to a single cell suspension and assessed for STn expression by flow cytometry. Around 80% of the cells in tissues from groups 1, 4, and 5 were STn positive, while the cells from group 2 mice were less than 40% STn positive (a reduction of about 50%) and cells from group 3 mice were around 10% STn positive (a reduction of greater than 85%).

ovarian cancer tissue = assay: Immunohistochemical staining of ovarian cancer tissue sections (Example 9); conditions: primary antibody; compared to normal IgG and no primary antibody
Excerpt: Tissue sections from ovarian cancer tissue were subjected to immunohistochemical staining to identify cells expressing STn using S3F antibody as a primary antibody. Bound antibody was detected using a peroxidase-based secondary detection system.

N.N.O=C([O-])C1(C(=O)[O-])CCC1.[Pt+2] [carboplatin] was tested, and the “cell viability (MTT assay)” value (STn+CD133+ OV90 cells) was “significantly reduced”, the “relative cell viability (metabolic activity, MTT assay)” value (“relative cell viability” for short) (OVCAR3 cells) was “decreased cell viability” and the “relative frequency of STn-negative subpopulations (STn-/CD133- and STn-/CD133+)” value (OVCAR4 cells) was “decrease”. For the same molecule, the “relative frequency of STn-positive subpopulations (STn+/CD133- and STn+/CD133+)” value (OVCAR4 cells) was “increase”.

CC(=O)O[C@H]1C(=O)[C@@]2(C)[C@H]([C@H](OC(=O)c3ccccc3)[C@]3(O)C[C@H](OC(=O)[C@H](O)[C@@H](NC(=O)c4ccccc4)c4ccccc4)C(C)=C1C3(C)C)[C@]1(OC(C)=O)CO[C@@H]1C[C@@H]2O [paclitaxel] was tested, and the “cell viability (MTT assay)” value (STn+CD133+ OV90 cells) was “significantly reduced”, the “relative cell viability” value (OVCAR3 cells) was “decreased cell viability” and the “relative frequency of STn-negative subpopulations (STn-/CD133- and STn-/CD133+)” value (OVCAR4 cells) was “decrease”. The “relative frequency of STn-positive subpopulations (STn+/CD133- and STn+/CD133+)” value (OVCAR4 cells) was “increase”.

B1: SIA101: anti-STn IgG2a antibody: SIA101 variable domains (SEQ ID NO: 3, 4) with mouse IgG2a constant domains (antibody, V domains shown)
VH: QVQLQQSDXELVKPGASVKISCKASGYTFTDHAIHWVKQKPEQGLEWIGYFSPGNDDIKYNEKFRGKATLTADKSSSTAYMQLNSLSSDDSAVYFCKRSLSTPYWGQGTLXTVSA
VL: DIVMTQSPSSLTVTAGEKVTMSCKSSQSLLNRGNHKNYLTWYRQKPGLPPKLLIYWASTRESGVPDRFTGSGSGTDFALTISSVQAEDLAVYYCQNDYTYPYTFGGGTKLEIKR
modifications: not fully specified; mouse IgG2a constant domains; MOD_RES (9)..(9) Any amino acid; MOD_RES (111)..(111) Any amino acid
For B1, the “STn positive cells in xenograft tissues” value [1] was “Around 80%”.

B2: S3F: anti-STn IgG2a antibody: mouse 3F1 variable domains (SEQ ID NO: 1, 2) with mouse IgG2a constant domains; full chains SEQ ID NO: 7, 8 (antibody)
heavy: QVQLQQSDAELVKPGASVKISCKASGYTFTDHAIHWVKQKPEQGLDWIGYISPGNGDIKYNEKFKDKVTLTADKSSSTACMHLNSLTSEDSAVYFCKRSLLALDYWGQGTTLTVSSAKTTAPSVYPLAPVCGDTTGSSVTLGCLVKGYFPEPVTLTWNSGSLSSGVHTFPAVLQSDLYTLSSSVTVTSSTWPSQSITCNVAHPASSTKVDKKIEPRGPTIKPCPPCKCPAPNLLGGPSVFIFPPKIKDVLMISLSPIVTCVVVDVSEDDPDVQISWFVNNVEVHTAQTQTHREDYNSTLRVVSALPIQHQDWMSGKEFKCKVNNKDLPAPIERTISKPKGSVRAPQVYVLPPPEEEMTKKQVTLTCMVTDFMPEDIYVEWTNNGKTELNYKNTEPVLDSDGSYFMYSKLRVEKKNWVERNSYSCSVVHEGLHNHHTTKSFSRTPGK
light: DIVMTQSHKFMSTSVGDRVSITCKASQDVGTNIAWYQQKPGRSPKVLIYSASTRHTGVPDRFTGSGSGTDFTLTISNVQSEDLTDYFCQQYSSFPLTFGVGTKLELKRADAAPTVSIFPPSSEQLTSGGASVVCFLNNFYPKDINVKWKIDGSERQNGVLNSWTDQDSKDSTYSMSSTLTLTKDEYERHNSYTCEATHKTSTSPIVKSFNRNEC
For B2, the “STn positive cells in xenograft tissues” value [1] was “Around 80%”, the “cell viability (MTT assay)” value (STn+CD133+ OV90 cells) was “no significant effect” and the “relative cell viability” value (OVCAR3 cells) was “no loss of viability”. The “immunohistochemical staining of STn-expressing cells” value (ovarian cancer tissue) was “Numerous cells showed positive staining”.
